Reference: patent publication US12202834B2, “Solid state forms of oclacitinib maleate” (VationPharma B.V., priority 2019, dated 2025)
Where “and” joins values, the source holds several entries; their conditions need not be identical. Equal entries are not always repeated. Structures can show the parent of a compound that is named as a salt.

Experiments:
Format in all cases: physicochemical
[1] = Thermodynamic solubility test (saturated solution, gravimetric); settings: for Solubility, Average: average of three determinations; for Solubility compared to oclacitinib maleate form A: form A normalized to 100% (FIG. 16); for Solubility: single determination, saturated solution, 15 minutes stirring (600 rpm), 15 minute equilibrium, 0.2 μm filter
Description: The thermodynamic solubility of different forms of oclacitinib maleate was tested by generating a saturated solution for each form (i.e. oclacitinib maleate form A, amorphous oclacitinib maleate and monohydrate form of oclacitinib maleate). After 15 minutes of stirring (600 rpm) and further 15 minute of an equilibrium phase the solution was filtrated over an 0.2 μm syringe filter into a vial with a known weight.
Subsequently, the solvent was allowed to evaporate and the vial was then weighted again.

[2] = Stability tests of solid forms (storage, solid form analysed by XRPD); settings: for Relative humidity at which the solid form is stable / can be stored: general statement in description
Description: The stability of the solid forms of oclacitinib obtained was tested at three different conditions, i.e. storage at 25° C. at 0% relative humidity, 40° C. at 75% rH and 25° C. at 100% rH. Alternatively or additionally, the stability of the solid forms of oclacitinib obtained was tested at 25° C. at 25% rH.

[3] = Hygroscopicity of solid state form; settings: general statement in description
[4] = relatively high humidity, 25° C. at 100% rH
[5] = relatively high humidity, 40° C. at 75% rH
[6] = relatively low humidity, 25° C. at 0% rH

Compound	Solubility, Average [1]	Solubility [1]	Solid form found after storage ([2]; 25° C./0% rH, Week 1)	Solid form found after storage ([2]; 25° C./0% rH, Week 4)	Solid form found after storage ([2]; 25° C./100% rH, Week 1)	Solid form found after storage ([2]; 25° C./100% rH, Week 4)	Solid form found after storage ([2]; 40° C./75% rH, Week 1)	Solid form found after storage ([2]; 40° C./75% rH, Week 4)	also measured
CNS(=O)(=O)C[C@H]1CC[C@H](N(C)c2ncnc3[nH]ccc23)CC1 [Amorphous, amorphous oclacitinib maleate]	37.834 mg/mL	37.095 mg/mL and 37.430 mg/mL and 38.976 mg/mL	–	–	–	–	–	–	Solubility compared to oclacitinib maleate form A ([1]; listed as amorphous form of oclacitinib maleate): more than twice as soluble
CNS(=O)(=O)C[C@H]1CC[C@H](N(C)c2ncnc3[nH]ccc23)CC1 [Form A, N-methyl(4-(methyl(7H-pyrrolo[2,3-d]pyrimidin-4-yl)amino)cyclohexyl)methanesulfonamide maleic acid salt, reference compound]	17.135 mg/mL	16.914 mg/mL and 16.690 mg/mL and 17.802 mg/mL	–	–	–	–	–	–	Relative humidity at which the solid form is stable / can be stored ([2]; listed as oclacitinib maleate form A): at most 30%
CNS(=O)(=O)C[C@H]1CC[C@H](N(C)c2ncnc3[nH]ccc23)CC1 [example 8, amorphous oclacitinib maleate]	–	–	–	–	–	–	–	–	Change of solid state on storage (XRPD) ([2]; 25° C. at 0% rH, after 2 weeks): remains stable; Change of solid state on storage (XRPD) ([2]; 25° C. at 25% rH, 3 weeks): does not show any change of solid state; Change of solid state on storage (XRPD) ([2]; 25° C. at 100% rH, after 2 weeks): conversion (intermediate graphs) of the amorphous phase to the monohydrate form of oclacitinib maleate; Change of solid state on storage (XRPD) ([2]; 40° C. at 75% rH, after 2 weeks): conversion (intermediate graphs) of the amorphous phase to the monohydrate form of oclacitinib maleate
CNS(=O)(=O)C[C@H]1CC[C@H](N(C)c2ncnc3[nH]ccc23)CC1 [example 9, amorphous oclacitinib maleate]	–	–	–	–	–	–	–	–	Change of solid state on storage (XRPD) ([2]; 25° C. at 25% rH, 3 weeks): mixture (upper graph) comprising amorphous oclacitinib maleate and oclacitinib maleate form A
CNS(=O)(=O)C[C@H]1CC[C@H](N(C)c2ncnc3[nH]ccc23)CC1 [monohydrate form of oclacitinib maleate]	8.994 mg/mL	9.053 mg/mL and 9.047 mg/mL and 8.884 mg/mL	Monohydrate	Monohydrate	Monohydrate	Monohydrate	Monohydrate	Monohydrate	Stability of solid form ([2]; all three storage conditions (25° C./0% rH, 40° C./75% rH, 25° C./100% rH)): stable under all storage conditions; Stability of solid state with respect to relative humidity, in words ([2]; low (<50% rH) and high (>50% rH) relative humidity): stable by any relative humidity of the surrounding air; Solubility compared to oclacitinib maleate form A [1]: halved
CNS(=O)(=O)C[C@H]1CC[C@H](N(C)c2ncnc3[nH]ccc23)CC1 [oclacitinib maleate form B]	–	–	Form B	Form A	Form B	Form B	Form B	Form B	Solid form found after storage ([2]; 25° C./0% rH, Week 12): Form A; Solid form found after storage ([2]; 25° C./100% rH, Week 12): Form B; Solid form found after storage ([2]; 40° C./75% rH, Week 12): Form B; Relative humidity at which the solid form is stable / can be stored [2]: at least 30%; Stability of solid form [2, 4]: is stable; Stability of solid form [2, 5]: is stable; Stability of solid form [2, 6]: converses into oclacitinib maleate form A; Hygroscopicity [3]: non-hygroscopic
CNS(=O)(=O)C[C@H]1CC[C@H](N(C)c2ncnc3[nH]ccc23)CC1 [tetramethyl urea solvate form of oclacitinib maleate]	–	–	TMU solvate	TMU solvate	Form B	Form B	Form B	Form B	Solid form found after storage ([2]; 25° C./0% rH, Week 12): TMU solvate; Solid form found after storage ([2]; 25° C./100% rH, Week 12): Form B; Solid form found after storage ([2]; 40° C./75% rH, Week 12): Form B; Stability of solid form [2, 4]: converses into oclacitinib maleate form B; Stability of solid form [2, 5]: converses into oclacitinib maleate form B; Stability of solid form [2, 6]: is stable
